Laboratory results as given in ChEMBL document CHEMBL1909046, “DrugMatrix in vitro pharmacology data”.
pIC50, pKi: −log10 of the molar value.

Experiments:
[1] = molecular target: T1, C-X-C chemokine receptor type 1 (Homo sapiens, UniProt P25024); also: in other assays of this panel Not Active means under 50% inhibition at 10 µM
T1 sequence (P25024 whole entry): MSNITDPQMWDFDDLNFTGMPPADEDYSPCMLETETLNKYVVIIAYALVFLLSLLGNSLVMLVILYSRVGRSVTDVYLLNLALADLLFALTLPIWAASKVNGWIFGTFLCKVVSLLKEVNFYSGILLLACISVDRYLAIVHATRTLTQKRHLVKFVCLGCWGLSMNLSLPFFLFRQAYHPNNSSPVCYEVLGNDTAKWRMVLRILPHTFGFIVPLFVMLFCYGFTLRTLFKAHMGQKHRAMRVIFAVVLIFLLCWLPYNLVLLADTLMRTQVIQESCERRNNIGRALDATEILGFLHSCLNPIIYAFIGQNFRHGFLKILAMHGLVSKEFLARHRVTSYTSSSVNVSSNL

[2] = molecular target: T2, Receptor-type tyrosine-protein phosphatase C (Homo sapiens, UniProt P08575); set-up: species or system Escherichia coli;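 also: inhibition of CD45 enzyme activity measured using DiFMUP as substrate; in other assays of this panel Not Active means under 50% inhibition at 10 µM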
T2 sequence (P08575 whole entry): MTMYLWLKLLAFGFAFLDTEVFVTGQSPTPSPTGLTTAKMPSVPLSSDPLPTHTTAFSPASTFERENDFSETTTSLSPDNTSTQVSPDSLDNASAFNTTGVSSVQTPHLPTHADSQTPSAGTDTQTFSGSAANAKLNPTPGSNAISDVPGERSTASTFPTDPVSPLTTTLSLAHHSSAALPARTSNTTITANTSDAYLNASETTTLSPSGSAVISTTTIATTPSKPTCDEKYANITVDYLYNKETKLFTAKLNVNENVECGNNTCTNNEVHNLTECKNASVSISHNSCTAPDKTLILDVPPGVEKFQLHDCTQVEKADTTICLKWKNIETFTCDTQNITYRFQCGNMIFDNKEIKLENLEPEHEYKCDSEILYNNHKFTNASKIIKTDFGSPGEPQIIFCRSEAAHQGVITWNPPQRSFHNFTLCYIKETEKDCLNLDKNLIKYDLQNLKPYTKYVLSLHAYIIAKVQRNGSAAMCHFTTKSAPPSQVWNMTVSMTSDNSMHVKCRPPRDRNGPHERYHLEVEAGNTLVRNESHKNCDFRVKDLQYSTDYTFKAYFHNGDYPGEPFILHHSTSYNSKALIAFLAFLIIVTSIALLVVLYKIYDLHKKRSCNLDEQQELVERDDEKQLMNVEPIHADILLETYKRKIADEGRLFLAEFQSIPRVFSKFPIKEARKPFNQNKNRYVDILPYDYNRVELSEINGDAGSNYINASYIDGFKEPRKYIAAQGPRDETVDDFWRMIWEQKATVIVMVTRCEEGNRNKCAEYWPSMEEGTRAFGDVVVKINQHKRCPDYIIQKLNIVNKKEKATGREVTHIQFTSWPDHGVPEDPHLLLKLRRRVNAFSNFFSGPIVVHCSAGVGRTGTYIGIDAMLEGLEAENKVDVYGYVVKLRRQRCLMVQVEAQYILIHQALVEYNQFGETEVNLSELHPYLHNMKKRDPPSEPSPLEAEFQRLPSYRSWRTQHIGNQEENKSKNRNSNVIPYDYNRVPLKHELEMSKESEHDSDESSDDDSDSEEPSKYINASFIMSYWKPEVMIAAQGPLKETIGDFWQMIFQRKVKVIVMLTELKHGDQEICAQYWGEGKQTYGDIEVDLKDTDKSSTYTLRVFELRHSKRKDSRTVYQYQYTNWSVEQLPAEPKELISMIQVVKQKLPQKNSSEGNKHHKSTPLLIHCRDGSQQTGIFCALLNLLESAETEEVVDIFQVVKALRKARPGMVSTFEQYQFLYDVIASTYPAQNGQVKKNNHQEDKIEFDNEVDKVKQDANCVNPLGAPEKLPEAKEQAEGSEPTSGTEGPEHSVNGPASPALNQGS

[3] = DRUGMATRIX: Sigma2 radioligand binding (ligand: [3H] Ifenprodil); format: cell membranes, Rattus norvegicus, Wistar, Brain, Membrane; conditions: Not Active = under 50% inhibition at 10 µM
[4] = molecular target: Beta-1 adrenergic receptor (Homo sapiens, UniProt P08588); assay: DRUGMATRIX: Adrenergic beta1 radioligand binding (ligand: [125I] Cyanopindolol); format: cell membranes, CHO-K1, Membrane; conditions: Not Active = under 50% inhibition at 10 µM; for IC50: cho-k1
D(4) dopamine receptor = molecular target: T3, D(4) dopamine receptor (Homo sapiens, UniProt P21917); assay: DRUGMATRIX: Dopamine D4.2 radioligand binding (ligand: [3H] Spiperone); format: cell membranes, CHO-K1, Membrane; conditions: cho-k1; Not Active = under 50% inhibition at 10 µM
T3 sequence (P21917 whole entry): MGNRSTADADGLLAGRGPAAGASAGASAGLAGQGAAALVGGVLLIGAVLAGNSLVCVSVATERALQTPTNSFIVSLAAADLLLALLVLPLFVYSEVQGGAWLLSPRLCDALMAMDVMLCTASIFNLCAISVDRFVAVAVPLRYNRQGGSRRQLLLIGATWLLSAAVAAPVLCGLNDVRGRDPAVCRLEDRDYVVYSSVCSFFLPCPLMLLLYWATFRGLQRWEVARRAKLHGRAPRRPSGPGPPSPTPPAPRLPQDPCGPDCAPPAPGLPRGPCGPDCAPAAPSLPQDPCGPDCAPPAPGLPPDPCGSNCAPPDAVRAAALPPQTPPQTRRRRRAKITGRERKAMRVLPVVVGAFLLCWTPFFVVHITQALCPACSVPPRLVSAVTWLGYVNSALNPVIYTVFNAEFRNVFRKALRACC

Estrogen receptor = molecular target: T4, Estrogen receptor (Homo sapiens, UniProt P03372); conditions: sf9; also: in other assays of this panel Not Active means under 50% inhibition at 10 µM
T4 sequence (P03372 whole entry): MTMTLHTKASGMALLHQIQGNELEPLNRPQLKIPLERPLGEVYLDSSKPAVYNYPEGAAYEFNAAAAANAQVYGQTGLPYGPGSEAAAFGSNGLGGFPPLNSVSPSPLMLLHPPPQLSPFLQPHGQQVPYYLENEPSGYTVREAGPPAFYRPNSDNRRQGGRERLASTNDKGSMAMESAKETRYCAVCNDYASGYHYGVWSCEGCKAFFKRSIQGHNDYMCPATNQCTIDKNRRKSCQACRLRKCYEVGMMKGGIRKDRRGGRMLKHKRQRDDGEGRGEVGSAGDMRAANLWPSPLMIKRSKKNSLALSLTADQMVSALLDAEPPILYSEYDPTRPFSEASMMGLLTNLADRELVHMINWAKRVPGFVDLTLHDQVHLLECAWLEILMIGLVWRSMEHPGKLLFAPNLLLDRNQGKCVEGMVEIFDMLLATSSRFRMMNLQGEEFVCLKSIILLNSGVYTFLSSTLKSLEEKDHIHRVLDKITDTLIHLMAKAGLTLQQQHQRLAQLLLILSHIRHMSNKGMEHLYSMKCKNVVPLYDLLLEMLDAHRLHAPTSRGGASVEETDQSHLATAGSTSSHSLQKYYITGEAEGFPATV

[5] = DRUGMATRIX: Glutamate, NMDA, Agonism radioligand binding (ligand: [3H] CGP-39653); format: cell membranes, Rattus norvegicus, Wistar, Cerebral cortex, Membrane; conditions: Not Active = under 50% inhibition at 10 µM
[6] = molecular target: Aldo-keto reductase family 1 member B1 (Rattus norvegicus, UniProt P07943); format: tissue-based, Lens of camera-type eye;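 also: inhibition of aldose reductase enzyme activity, measured with DL-glyceraldehyde as the substrate; in other assays of this panel Not Active means under 50% inhibition at 10 µM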

Beta-1 adrenergic receptor, sequence (P08588 whole entry): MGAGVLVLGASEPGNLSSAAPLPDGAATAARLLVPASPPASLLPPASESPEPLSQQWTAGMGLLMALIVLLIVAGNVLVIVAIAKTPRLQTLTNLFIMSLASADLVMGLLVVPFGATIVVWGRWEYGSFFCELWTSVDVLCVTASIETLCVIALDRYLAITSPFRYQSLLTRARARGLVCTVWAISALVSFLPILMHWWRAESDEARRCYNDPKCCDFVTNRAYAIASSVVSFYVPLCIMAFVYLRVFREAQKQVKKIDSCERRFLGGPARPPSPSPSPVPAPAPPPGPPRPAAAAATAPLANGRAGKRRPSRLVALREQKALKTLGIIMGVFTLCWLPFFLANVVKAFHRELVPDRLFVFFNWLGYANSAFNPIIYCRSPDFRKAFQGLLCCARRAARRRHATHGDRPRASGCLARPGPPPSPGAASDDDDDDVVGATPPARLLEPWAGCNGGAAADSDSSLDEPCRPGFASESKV

SMILES	IC50 [1]	IC50 [2]	IC50 [3]	Ki [3]	pIC50 ([4]; read-out: IC50)	pKi ([4]; read-out: Ki)	IC50 (D(4) dopamine receptor)	IC50 (Estrogen receptor)	IC50 [5]	Ki [5]	IC50 [6]	IC50 [4]
CN1C[C@H](C(=O)N[C@]2(C)O[C@@]3(O)[C@@H]4CCCN4C(=O)[C@H](Cc4ccccc4)N3C2=O)C=C2c3cccc4[nH]cc(c34)C[C@H]21 [ERGOTAMINE]	Not Active	Not Active	Not Active	Not Active	5.38	5.62	Not Active	Not Active	Not Active	Not Active	Not Active	–
CCc1cccc2c3c([nH]c12)C(CC)(CC(=O)O)OCC3 (stereo unspecified) [ETODOLAC]	Not Active	Not Active	Not Active	Not Active	–	–	Not Active	Not Active	Not Active	Not Active	Not Active	Not Active
Cc1c(-c2ccccc2)oc2c(C(=O)OCCN3CCCCC3)cccc2c1=O [FLAVOXATE]	Not Active	Not Active	Not Active	Not Active	–	–	Not Active	Not Active	Not Active	Not Active	Not Active	Not Active
Nc1nc(=O)[nH]cc1F [FLUCYTOSINE]	Not Active	Not Active	Not Active	Not Active	–	–	Not Active	Not Active	Not Active	Not Active	Not Active	Not Active
O=C1OC2(c3ccc(O)cc3Oc3cc(O)ccc32)c2ccccc21 [FLUORESCEIN]	Not Active	Not Active	Not Active	Not Active	–	–	Not Active	Not Active	Not Active	Not Active	Not Active	Not Active
CC(=O)[C@@]1(O)CC[C@H]2[C@@H]3C[C@H](C)C4=CC(=O)C=C[C@]4(C)[C@@]3(F)[C@@H](O)C[C@@]21C [FLUOROMETHOLONE]	Not Active	Not Active	Not Active	Not Active	–	–	Not Active	Not Active	Not Active	Not Active	Not Active	Not Active
O=c1[nH]cc(F)c(=O)[nH]1 [FLUOROURACIL]	Not Active	Not Active	Not Active	Not Active	–	–	Not Active	Not Active	Not Active	Not Active	Not Active	Not Active
O=C1OCCN1/N=C/c1ccc([N+](=O)[O-])o1 [FURAZOLIDONE]	Not Active	Not Active	Not Active	Not Active	–	–	Not Active	Not Active	Not Active	Not Active	Not Active	Not Active
Nc1nc2c(ncn2COC(CO)CO)c(=O)[nH]1 [GANCICLOVIR]	Not Active	Not Active	Not Active	Not Active	–	–	Not Active	Not Active	Not Active	Not Active	Not Active	Not Active
NCC(=O)O [GLYCINE]	Not Active	Not Active	Not Active	Not Active	–	–	Not Active	Not Active	Not Active	Not Active	Not Active	Not Active
COC1=CC(=O)C[C@@H](C)[C@]12Oc1c(Cl)c(OC)cc(OC)c1C2=O [GRISEOFULVIN]	Not Active	Not Active	Not Active	Not Active	–	–	Not Active	Not Active	Not Active	Not Active	Not Active	Not Active
NS(=O)(=O)c1cc2c(cc1Cl)NCNS2(=O)=O [HYDROCHLOROTHIAZIDE]	Not Active	Not Active	Not Active	Not Active	–	–	Not Active	Not Active	Not Active	Not Active	Not Active	Not Active
CN1CCC[C@H]1c1cccnc1 [NICOTINE]	Not Active	Not Active	Not Active	Not Active	–	–	Not Active	Not Active	Not Active	Not Active	Not Active	Not Active
